This is an account of results in patent US20020115111A1, “Compounds” (SmithKline Beecham Corporation, priority 1994, published 2002).

The target of data set [1] is T1, low affinity rolipram binding form of PDE IV (LPDE IV), human monocyte PDE IV (Homo sapiens, UniProt P27815).
T1 construct: made in house; host or cells: yeast
Kind of data set: PDE IV catalytic activity assay (low affinity form). Format: biochemical. The following applies: 1 μM [3H]cAMP as substrate. The text has this:
(§1) Inhibition of PDE IV catalytic activity can thus be used as an index of the potency of compounds at LPDE IV.

Data set [2] deals with high affinity rolipram binding form of PDE IV (HPDE IV). Kind of data set: [3H]-rolipram binding assay (competition for high affinity site). Set-up: species or system rat. The following applies: for High/Low Ratio (IC50 high affinity form divided by IC50 low affinity form): HPDE IV IC50 / LPDE IV IC50; for IC50: competition with 1 nM [3H]-rolipram, 1 hour at 30° C. The procedure:
as §1
The assay was run for 1 hour at 30° C. The reaction was terminated and bound ligand was separated from free ligand using a Brandel cell harvester. Competition for the high affinity binding site was assessed under conditions that were identical to those used for measuring low affinity PDE activity, expect that [^3H]-cAMP was not present.

Data set [3] deals with TNFα production from isolated human monocytes vs acid secretion in isolated rabbit parietal glands. Kind of data set: therapeutic index, in vitro comparison: suppression of TNFα production vs stimulation of acid secretion. The data set is classed as cell-based. The procedure:
To determine acid secretion, the gastric glands in combination with [^14C]-aminopyrine, various concentrations of selective PDE IV inhibitors, and a threshold concentration of histamine (0.3-1.0 μM) were incubated at 37° C. on a horizontal shaker (110 cycles/min) for 20 minutes according to the procedures of Sack and Spenney (1982). Samples were then centrifuged and radioactivity in aliquots of the supernatant fraction and pellet were determined. Aminopyrine ratios were calculated as described by Sack and Spenney (1982). The data were expressed as a percent of a response produced by a maximal concentration of histamine (100 μM). EC50 values were determined by linear interpolation using the maximum response obtained for each compound.
TNFα inhibition was assessed in human peripheral blood monocytes which were purified (Collata) from freshly obtained buffy coats or plasma-phoresis residues of blood from normal human donors. Monocytes were plated at density of 1×10^6 cells/ml medium/well in 24-well multi-dishes. […]
Levels of TNFα were measured using a ELISA (Winston) employing a murine monoclonal anti-human TNFα antibody (see below) as the capture antibody and a polyclonal rabbit anti-human TNFα as the second antibody. […] TNFα levels in samples were calculated from a standard curve generated with recombinant human TNFα produced in E. coli. […]

Data set [4] relates to acid secretion. The note with it: rats, particularly in combination with an activator of adenylate cyclase such as histamine; cited from earlier work.
The conditions of data set [5]: clinical studies; cited from earlier work.
Data set [6] relates to [3H]-rolipram binding sites in rat brain homogenates. Briefly: high affinity [3H]-rolipram binding sites in rat brain homogenates (Schneider 1986). The following applies: Kd vs Ki. The text has this: In 1986, Schneider and colleagues described the presence and characteristics of high affinity, stereoselective [^3H]-rolipram binding sites in rat brain homogenates, Although it was assumed that these binding sites represented the catalytic site of the rat brain “noncalmodulin-dependent, cAMP phosphodiesterase” (i.e. PDE IV), a striking anomaly was apparent in the data.

As usually defined, the IC50 is the concentration needed to halve the response being measured. Lower therefore signals greater potency.

T1 sequence (P27815 1-686 isoform P27815-3): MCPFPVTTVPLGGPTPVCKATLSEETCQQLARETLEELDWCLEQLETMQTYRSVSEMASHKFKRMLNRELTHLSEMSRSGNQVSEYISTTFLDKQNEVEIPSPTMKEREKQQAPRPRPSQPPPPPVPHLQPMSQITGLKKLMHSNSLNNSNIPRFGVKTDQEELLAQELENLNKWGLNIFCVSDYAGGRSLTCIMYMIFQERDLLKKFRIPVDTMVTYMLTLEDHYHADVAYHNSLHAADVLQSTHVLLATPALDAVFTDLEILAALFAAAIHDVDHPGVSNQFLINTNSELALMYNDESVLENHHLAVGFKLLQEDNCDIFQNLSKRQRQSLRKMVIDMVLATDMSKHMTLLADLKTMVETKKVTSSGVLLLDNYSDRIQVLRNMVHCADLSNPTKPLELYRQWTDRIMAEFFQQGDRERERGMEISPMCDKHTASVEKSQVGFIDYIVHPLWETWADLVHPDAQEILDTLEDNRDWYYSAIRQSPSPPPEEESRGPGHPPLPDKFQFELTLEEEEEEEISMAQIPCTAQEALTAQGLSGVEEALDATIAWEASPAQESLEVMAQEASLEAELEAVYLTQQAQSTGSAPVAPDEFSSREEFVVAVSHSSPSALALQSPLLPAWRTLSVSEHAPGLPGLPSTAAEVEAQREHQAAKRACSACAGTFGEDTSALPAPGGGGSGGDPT

Consider `COc1ccc([C@@H]2CC[C@H](C(=O)O)C2)cc1OC1CCCC1` (relative stereo) [cis-[3-(3-cyclopentyloxy-4-methoxyphenyl)cyclopentane-1-carboxylate]], for which, in data set [1], the half-inhibitory concentration (IC50) was 2.7 µM.
`COc1ccc(C2CN(Cc3ccc(N)cc3)C(=O)N2)cc1OC1CCCC1` (stereo not drawn) [1-(4-aminobenzyl)-4-(3-cyclopentyloxy-4-methoxyphenyl)-2-imidazolidinone] registered an IC50 in data set [1] of 1.4 µM. Besides, in data set [2], the “High/Low Ratio (IC50 high affinity form divided by IC50 low affinity form)” value was 0.07 and the IC50 came out at 0.01 µM.
`COc1ccc(C2CCC(c3nnn[nH]3)C2)cc1OC1CCCC1` (stereo not drawn) [1-(5-tetrazole)-3-(3-cyclopentyloxy-4-methoxyphenyl)cyclopentane]: in data set [1], the half-inhibitory concentration (IC50) stood at 1.1 µM. Moreover, in data set [2], the “High/Low Ratio (IC50 high affinity form divided by IC50 low affinity form)” value is 0.0018 and the IC50 was 0.002 µM.
In the case of `COC(=O)C1CC(C#N)(c2ccc(OC(F)F)c(OCC3CC3)c2)CCC1=O` (stereo not drawn) [2-carbomethoxy-4-cyano-4-(3-cyclopropylmethoxy-4-difluoromethoxyphenyl)cyclohexan-1-one], the IC50 in data set [1] turned out to be 0.14 µM; in data set [2] it was 0.5 µM. Also, in data set [2], the “High/Low Ratio (IC50 high affinity form divided by IC50 low affinity form)” value was found to be 3.571. Moreover, the “improvement in therapeutic index in comparison with R-rolipram” value in data set [3] is 100 fold.
On to `COc1ccc(C2CCN(Cc3ccc(NC(=NC#N)SC)cc3)C2=O)cc1OC1CCCC1` (stereo not drawn) [3-(cyclopentyloxy-4-methoxyphenyl)-1-(4-N′-[N2-cyano-S-methyl-isothioureido]benzyl)-2-pyrrolidone], for which the half-inhibitory concentration (IC50) in data set [1] turned out to be 0.1 µM; in data set [2] it was 0.03 µM. The “High/Low Ratio (IC50 high affinity form divided by IC50 low affinity form)” value in data set [2] was found to be 0.30.
On to `CCOC(=O)C=C1C[C@H](c2ccc(OC)c(OC3CCCC3)c2)CN1` [(R)-(+)-ethyl [4-(3-cyclopentyloxy-4-methoxyphenyl)pyrrolidine-2-ylidene]acetate], for which, in data set [1], the IC50 came out at 0.14 µM. For the same compound, in data set [2], the “High/Low Ratio (IC50 high affinity form divided by IC50 low affinity form)” value came out at 2.143 and the IC50 is 0.3 µM.
In data set [1], `CCOC(=O)C=C1C[C@@H](c2ccc(OC)c(OC3CCCC3)c2)CN1` [(S)-(-)-ethyl[4-(3-cyclopentyloxy-4-methoxphenyl)pyrrolidine-2-ylidene]acetate] displayed a half-maximal inhibitory concentration (IC50) of 0.46 µM. Besides, in data set [2], the “High/Low Ratio (IC50 high affinity form divided by IC50 low affinity form)” value is listed as “.98” and the IC50 came to 0.45 µM.
As for `CC(C)Cn1c(=O)n(C)c(=O)c2[nH]cnc21` [IBMX, reference compound], the results for the IC50 in data set [1] and in data set [2] were 29.1 µM and 20.3 µM, respectively. Besides, in data set [2], the “High/Low Ratio (IC50 high affinity form divided by IC50 low affinity form)” value was 0.698.
The corresponding values for `COc1ccc(CCNC(=O)C(N)=O)cc1OC1CCCC1` [N-[2-(3-cyclopentyloxy-4-methoxyphenyl)ethyl]oxamide] are 0.89 µM, 0.012 µM and 0.013.
As for `CCCCOc1cc(CC2CNC(=O)N2)ccc1OC` (stereo not drawn) [Ro 20-1724], the “effect on acid secretion” value in data set [4] was “enhance acid secretion in rats”.
Turning to `N#CC1(c2ccc(OC(F)F)c(OCC3CC3)c2)CCC(O)CC1` (stereo not drawn) [cis-[4-cyano-4-(3-cyclopropylmethoxy-4-difluoromethoxyphenyl)cyclohexan-1-ol]], the IC50 is 0.021 µM in data set [1] and 0.04 µM in data set [2]. Moreover, in data set [3], the “improvement in therapeutic index in comparison with R-rolipram” value came to 100 fold.
In data set [2], `CCCCn1c(=O)c2c(ncn2CC(C)=O)n(CCCC)c1=O` [denbufylline, 7-acetonyl,1,3-dibutylxanthine, reference compound] gave a concentration for half-maximal inhibition (IC50) of 0.05 µM. The side effects result in data set [5] is “may include pyrosis, nausea and emesis”.
Consider `OCCN(CCO)c1nc(N2CCCCC2)c2nc(N(CCO)CCO)nc(N3CCCCC3)c2n1` [dipyridamole, 2,2′,2″,2′″-[(4,8-dipiperidinopyrimido[5,4-d]pyrimidine-2-6-diyl)dinitrilo]tetraethanol, reference compound], for which the half-inhibitory concentration (IC50) was determined as 5.2 µM in data set [1] and 32.5 µM in data set [2]. The “High/Low Ratio (IC50 high affinity form divided by IC50 low affinity form)” value in data set [2] is given as 6.25.
As to `COc1ccc(C2CNC(=O)C2)cc1OC1CCCC1` (stereo not drawn) [rolipram], in data set [6], the “difference in affinity for the binding site versus effect on catalytic activity” value worked out at 1000 fold. For the same compound, in data set [4], the “effect on acid secretion” value was “enhance acid secretion in rats”. Moreover, the side effects result in data set [5] was “has psychotropic activity and produces gastrointestinal effects, e.g., pyrosis, nausea and emesis”.
`COc1cc2c(cc1OC)-c1c/c(=N\c3c(C)cc(C)cc3C)n(C)c(=O)n1CC2` [trequinsin, 2,3,6,7-tetrahydro-2-(mesitylimino)-9,10 dimethoxy-3-methyl-4H-primido[6,1-a]isoquinoline-4-one, reference compound] displayed a half-inhibitory concentration (IC50) in data set [2] of 5 µM.
